Measured values as given in patent US20060183803A1, “L-aspartic acid for the treatment of assorted health problems” (Instituto del Metabolismo Celular, S.L., priority 2005, published 2006).

Assays:
[1] = Sexual potency problems of male patients under treatment; format: in vivo, human; conditions: after 2-3 months of treatment
Source text: A number of the male patients in our trails initially complained of erectile disfunction and other sexual performance problems. […] These improvements were most significant for those patients who had reported problems of erectile disfunction; with these patients generally reporting improvements in all aspects of their sexual activities, including their sexual appetency and ability to ejaculate.

[2] = Tobacco, caffeine and other drug addictions in patients under treatment; format: in vivo, human
Source text: For the treatment of tobacco addiction, we found it advisable to increase the frequency of the intake of L-aspartic acid to 10-12 small doses per day in order to control the anxiety to smoke.
In our clinical trials, some of our patients were addicted to some soft drugs like coffee (caffeine), tobacco (nicotine), Prozac (fluoxetin), Trankimazin (alprazolam), Tranxilium (di-potasium chloride-acetate). In general, they were able to reduce their consumption of these materials while undergoing our recommended treatments. […] In tobacco release addiction programs, some small supplementary doses (0.5-1.0 g. every 30-45 minutes) may be necessary during the day to stop the patient's anxiety.
Smoking patients who expressed a desire to stop were advised to prepare a small bottle of water (or even fruit juice) with some small spoonfuls of L-aspartic acid, and to drink some small swigs of this throughout the day to control their anxiety levels.

[3] = Ketosis in patients under treatment
[4] = Migraines, headaches and menstrual pains reported by patients under treatment; format: in vivo, human; conditions: improvement in first or second month, in some cases several months
[5] = Clinical trial in patients suffering from hypertension; format: in vivo, human
Source text: Clinical trials for 250 patients suffering from hypertension (156 men and 94 women, with ages between 19 and 70 years) are reported below.
A summary of our clinical results are shown in Table 3 for average daily L-aspartic acid consumptions of 12 g/day (four daily 3 g doses).

[6] = Clinical trial in type-1 and type-2 diabetes patients; format: in vivo, human
Source text: There is, in principle, no special protocol for patients suffering from diabetes (both types), which is different from the general one described above. Type-2 diabetes is usually associated with overweight and/or excess of fat in the body, so its protocol should not differ substantially from the general one presented above. With regard to type-I diabetes, since this treatment allows cells to consume less glucose, as it enhances their capacity to consume fat, it can reduce one's insulin dependence.
Diabetic patients were told to take their values of blood glucose regularly (three or four times a day during the first months) until they achieved good blood glucose values. During the treatment, when it was seen that blood glucose levels were decreasing, the patients were instructed to reduce the doses of drugs or insulin, until removing them completely, to avoid hypoglycemia.
Our clinical trails involved a group of 200 patients, […]. The patients were divided into four groups: (i) Type-2 diabetes patients who had been recently diagnosed and were not yet taking any oral drugs or insulin treatments, (ii) Type-2 diabetes patients who had been taking oral drugs (usually sulphonylurea derivatives) for up to several years, (iii) Type-2 diabetes patients who were suffering for many years, and had started their treatment with oral drugs and, after several years, progressed to insulin injections, which were eventually being supplemented with oral drugs, and (iv) Type-1 diabetes patients, all of them under insulin treatment. Most of these patients were also suffering from other related health problems (e.g., overweight or obesity, hypertension, sexual potency problems).
The basic treatment guidelines for these diabetes patients were essentially the same as that which was indicated above for our obesity and overweight patients (i.e., four daily takings of 1-3 grams of L-aspartic acid and the elimination of starches from one's diet).

[7] = Clinical trial in non-diabetic patients with blood cholesterol excess; format: in vivo, human; conditions: more than 200 non-diabetic patients, four daily takings of 1-3 grams
Source text: These clinical trials included a group of more than 200 non-diabetic patients with blood cholesterol excesses. The basic treatment (i.e., four daily […] of 1-3 grams of L-aspartic acid and the elimination of starches from one's diet) for these patients was the same as that described above, plus: (i) complete elimination of carbohydrates from the diet, (ii) inclusion of unsaturated and polyunsaturated fat in all meals, and (iii) inclusion in some meals of cholesterol.

[8] = Clinical trial of L-aspartic acid plus starch-free diet in obesity and overweight
[9] = Patients with high blood uric acid levels under treatment; format: in vivo, human; conditions: sixty patients
Procedure: Sixty patients participating in this program had high blood uric acid levels.
Our treatment achieved a significant decrease in the uric acid levels of these patients: from initial levels of between 7.1 and 9.4 mg/100 mL to, after usually 2-4 months treatment, normal values.

[10] = Digestion problems of patients under treatment; format: in vivo, human; conditions: more than three hundred patients, after two or three weeks

For `N[C@@H](CC(=O)O)C(=O)O` [L-aspartic acid], the “erectile disfunction and other sexual performance problems” value [1] was “significant diminishments of their problems”, the “daily number of cigarettes smoked” value ([2]; most tobacco-addicted patients interested in ceasing, after 2-4 weeks) was “able to reduce their daily numbers of cigarettes smoked” and the caffeine addiction ([2]; patients consuming 8-12 daily coffees or caffeine soft drinks) was “drastically eliminate this dependence in only a few weeks”. The smoking cessation ([2]; patients wishing to stop, small swigs through the day, after several weeks) was “all of these patients had ceased smoking”, the “occurrence of ketosis under treatment” value ([3]; all patients under treatment) was “None of the patients under our treatment have suffered any kind of ketosis” and the “blood ketone bodies in patients with signs of ketosis before treatment” value ([3]; relatively short time after beginning treatments) was “achieved normal blood concentration of ketone bodies”. The “number of patients reporting migraines, headaches and menstrual pains” value [4] was “significant reduction”, the “reduction in % body fat” value ([5]; 250 hypertension patients, 12 g/day) was “approximately 10%” and the “mean time to attainment of recommended normal blood pressures” value ([5]; 250 patients, 12 g/day (four daily 3 g doses)) was 2.8 months. The “reduction of oral drugs and/or insulin injections” value ([6]; all diabetes patients) was “able to reduce to some degree their oral drugs and/or insulin injections”, the “glycosylated haemoglobin, cholesterol, tryglycerides and total lipids in blood analysis” value ([6]; diabetes patients) was “drastically reduced” and the “reduction in glycosylated haemoglobin levels” value ([6]; diabetes patients, over the duration of treatment) was at least 20%. The “time to change from insulin injections to oral diabetes drugs” value ([6]; most type-2 patients receiving insulin injections) was 1-2 months, the “reduction in glycosylated haemoglobin level, single patient” value ([6]; patient Example 32 in Table 2) was 38.05% and the “onset of improvement in glycemia levels” value ([6]; two type-2 patients (FIGS. 6 and 7)) was “clear from the first week of treatment”. For the same molecule, the “time to good control of glycemia and discontinuing diabetes medications” value ([6]; two type-2 patients (FIGS. 6 and 7), diabetes for over 10 years) was 1-2 months, the “reduction in insulin dosages” value ([6]; type-1 diabetes patients, over periods of 3-12 months) was 20-30% and the “blood cholesterol, tryglycerides and total lipid levels” value [7] was “clear improvement”. The “safety of prolonged treatment (blood chemical analysis)” value ([8]; duration as long as one wants) was “without danger of intoxication”, the “fat burnt per day” value ([8]; estimated from water unloaded, ratio 14/18) was 200 to 600 g and the “biochemical and hematological parameters in periodic blood analysis” value ([8]; human, in vivo) was “consistently showed improvements”. For the same molecule, the “side effect from reduced drinking” value ([8]; in some cases) was “hard stools and difficulty with bowel movements”, the weight loss outcome ([8]; more than 1,500 patients, ages 18 to 83) was “Successful weight losses in all cases” and the “usual weight loss rate” value ([8]; obesity patients, also printed as 11-13 pounds per month) was 5-6 kg per month. For the same molecule, the “carbohydrate abstinence syndrome (weakness, feeling sick)” value ([8]; on elimination of carbohydrate-rich foods) was “only during their first two weeks of participation”, the “fat as percentage of body mass after treatment” value ([8]; person (FIG. 5), 41.1% at start, after 290 days) was 23% and the “body fat mass after treatment” value ([8]; person (FIG. 5), 53.5 kg of fat at start, after 290 days) was 19.1 kg. The “body weight after treatment” value ([8]; person (FIG. 5), 130 kg at start, after 290 days of treatment) was 83 kg, the weight reduction ([8]; person (FIG. 5), after 290 days of treatment) was 47 kg and the “change in percentage of body fat” value ([8]; versus conventional hypocaloric diets) was “significant reductions in our patients' percentages of body fat”. The “anxiety, hunger pangs or energy loss during treatment” value ([8]; without sedative or stimulant drug) was “no significant anxiety, hunger pangs or energy loss”, the “blood uric acid level after treatment” value ([9]; initial levels between 7.1 and 9.4 mg/100 mL) was “normal values” and the “treatment time to normal uric acid values” ([9]; usually) was 2-4 months. The digestion problems [10] was “almost total resolution of their digestion problems”.
